Data on nine molecules can be found in US20180055032A1, “ODORS FOR PSYLLID TRAPPING, REPELLING AND CONTROL” (The Regents of the University of California, priority 2011, published 2018).

Common to all, as to assay type: cell-based, Diaphorina citri
Conditions in all cases: Table 1; odor diluted to 1%, 50 μL in cartridge

Experiment [1] relates to neuron 4B (rhinarial plate on flagellomere 4).
The test system of experiment [2] is neuron 2C (rhinarial plate on flagellomere 2). As to the kind of experiment: single-sensillum electrophysiology, odor response of neuron 2C.
Experiment [3] deals with neuron 4A (rhinarial plate on flagellomere 4). In words: single-sensillum electrophysiology, odor response of neuron 4A.
Experiment [4] relates to neuron 6A (rhinarial plate on flagellomere 6). As to the kind of experiment: single-sensillum electrophysiology, odor response of neuron 6A.
In experiment [5] the test system is neuron 4C (rhinarial plate on flagellomere 4). As to the kind of experiment: single-sensillum electrophysiology, odor response of neuron 4C.
For experiment [6], the system named is neuron 2A (rhinarial plate on flagellomere 2). In words: single-sensillum electrophysiology, odor response of neuron 2A. Note: key: 0, no response; +, >50 spikes/second; ++, >100 spikes/second; +++, >150 spikes/second.
Experiment [7] concerns neuron 6B (rhinarial plate on flagellomere 6). In words: single-sensillum electrophysiology, odor response of neuron 6B.
The test system of experiment [8] is neuron 7C (rhinarial plate on flagellomere 7). As to the kind of experiment: single-sensillum electrophysiology, odor response of neuron 7C.
Experiment [9] deals with neuron 7A (rhinarial plate on flagellomere 7). As to the kind of experiment: single-sensillum electrophysiology, odor response of neuron 7A. Note: key: 0, no response; +, >50 spikes/second; ++, >100 spikes/second; +++, >150 spikes/second.
Experiment [10] concerns neuron 7B (rhinarial plate on flagellomere 7).
Experiment [11] relates to neuron 6C (rhinarial plate on flagellomere 6). As to the kind of experiment: single-sensillum electrophysiology, odor response of neuron 6C.
The test system of experiment [12] is neuron 2B (rhinarial plate on flagellomere 2). In words: single-sensillum electrophysiology, odor response of neuron 2B.

As to `C=CCSSCC=C` [allyl disulfide], in experiment [1], the “odor response (frequency of action potentials during stimulus minus baseline), 4B” value is “++ (++, >100 spikes/second)”. Besides, the “odor response (frequency of action potentials during stimulus minus baseline), 2C” value in [2] came out at 0. Moreover, in [3], the “odor response (frequency of action potentials during stimulus minus baseline), 4A” value stood at 0. Further, the “odor response (frequency of action potentials during stimulus minus baseline), 6A” value in experiment [4] was determined as 0. Besides, the “odor response (frequency of action potentials during stimulus minus baseline), 4C” value in experiment [5] was found to be 0. Further, the “odor response (frequency of action potentials during stimulus minus baseline), 2A” value in experiment [6] worked out at 0. For the same molecule, the “odor response (frequency of action potentials during stimulus minus baseline), 6B” value in experiment [7] was “+ (+, >50 spikes/second)”. Further, the “odor response (frequency of action potentials during stimulus minus baseline), 7C” value in experiment [8] is 0. In experiment [9], the “odor response (frequency of action potentials during stimulus minus baseline), 7A” value amounted to 0. Besides, in experiment [10], the “odor response (frequency of action potentials during stimulus minus baseline), 7B” value was 0. In addition, the “odor response (frequency of action potentials during stimulus minus baseline), 6C” value in experiment [11] was 0. In [12], the “odor response (frequency of action potentials during stimulus minus baseline), 2B” value is given as 0.
Take `O=Cc1ccccc1` [benzaldehyde]: the “odor response (frequency of action potentials during stimulus minus baseline), 4B” value in experiment [1] was “+ (+, >50 spikes/second)”. In [2], the “odor response (frequency of action potentials during stimulus minus baseline), 2C” value is reported as “+ (+, >50 spikes/second)”. For the same molecule, the “odor response (frequency of action potentials during stimulus minus baseline), 4A” value in [3] came out at 0. Besides, the “odor response (frequency of action potentials during stimulus minus baseline), 6A” value in experiment [4] was 0. Moreover, the “odor response (frequency of action potentials during stimulus minus baseline), 4C” value in experiment [5] is recorded as 0. Also, the “odor response (frequency of action potentials during stimulus minus baseline), 2A” value in experiment [6] came out at 0. Besides, the “odor response (frequency of action potentials during stimulus minus baseline), 6B” value in [7] came to 0. In [8], the “odor response (frequency of action potentials during stimulus minus baseline), 7C” value was 0. The “odor response (frequency of action potentials during stimulus minus baseline), 7A” value in [9] is reported as 0. Besides, in [10], the “odor response (frequency of action potentials during stimulus minus baseline), 7B” value was 0. The “odor response (frequency of action potentials during stimulus minus baseline), 6C” value in experiment [11] is 0. In addition, the “odor response (frequency of action potentials during stimulus minus baseline), 2B” value in experiment [12] turned out to be 0.
Turning to `CC(C)=CCCC(C)=CC=O` [citral], the “odor response (frequency of action potentials during stimulus minus baseline), 4B” value in experiment [1] was 0. Also, the “odor response (frequency of action potentials during stimulus minus baseline), 2C” value in [2] is reported as “++ (++, >100 spikes/second)”. In addition, the “odor response (frequency of action potentials during stimulus minus baseline), 4A” value in experiment [3] was 0. Besides, the “odor response (frequency of action potentials during stimulus minus baseline), 6A” value in experiment [4] turned out to be 0. Further, the “odor response (frequency of action potentials during stimulus minus baseline), 4C” value in [5] came out at 0. In addition, in experiment [6], the “odor response (frequency of action potentials during stimulus minus baseline), 2A” value was determined as 0. The “odor response (frequency of action potentials during stimulus minus baseline), 6B” value in [7] was determined as 0. For the same molecule, in [8], the “odor response (frequency of action potentials during stimulus minus baseline), 7C” value is 0. In addition, the “odor response (frequency of action potentials during stimulus minus baseline), 7A” value in experiment [9] was 0. The “odor response (frequency of action potentials during stimulus minus baseline), 7B” value in experiment [10] amounted to 0. Further, the “odor response (frequency of action potentials during stimulus minus baseline), 6C” value in experiment [11] is 0. Further, the “odor response (frequency of action potentials during stimulus minus baseline), 2B” value in [12] is 0.
Take `CC(C)=CCCC(C)CC=O` (stereo not drawn) [citronellal]: the “odor response (frequency of action potentials during stimulus minus baseline), 4B” value in experiment [1] was 0. Further, in experiment [2], the “odor response (frequency of action potentials during stimulus minus baseline), 2C” value is listed as “+ (+, >50 spikes/second)”. Further, the “odor response (frequency of action potentials during stimulus minus baseline), 4A” value in experiment [3] turned out to be 0. In [4], the “odor response (frequency of action potentials during stimulus minus baseline), 6A” value came to 0. In addition, in experiment [5], the “odor response (frequency of action potentials during stimulus minus baseline), 4C” value was 0. For the same molecule, the “odor response (frequency of action potentials during stimulus minus baseline), 2A” value in [6] was determined as 0. The “odor response (frequency of action potentials during stimulus minus baseline), 6B” value in experiment [7] was determined as 0. In addition, the “odor response (frequency of action potentials during stimulus minus baseline), 7C” value in experiment [8] was 0. In addition, in experiment [9], the “odor response (frequency of action potentials during stimulus minus baseline), 7A” value amounted to 0. Besides, the “odor response (frequency of action potentials during stimulus minus baseline), 7B” value in [10] came to 0. In addition, the “odor response (frequency of action potentials during stimulus minus baseline), 6C” value in experiment [11] is given as 0. The “odor response (frequency of action potentials during stimulus minus baseline), 2B” value in experiment [12] stood at 0.
With `CCCCCCCCCC=O` [decanal], in experiment [1], the “odor response (frequency of action potentials during stimulus minus baseline), 4B” value is “+++ (+++, >150 spikes/second)”. For the same molecule, the “odor response (frequency of action potentials during stimulus minus baseline), 2C” value in experiment [2] is 0. In experiment [3], the “odor response (frequency of action potentials during stimulus minus baseline), 4A” value is reported as 0. Further, the “odor response (frequency of action potentials during stimulus minus baseline), 6A” value in experiment [4] came to 0. For the same molecule, the “odor response (frequency of action potentials during stimulus minus baseline), 4C” value in [5] was 0. In [6], the “odor response (frequency of action potentials during stimulus minus baseline), 2A” value worked out at 0. Moreover, the “odor response (frequency of action potentials during stimulus minus baseline), 6B” value in experiment [7] is on record as “++ (++, >100 spikes/second)”. Further, the “odor response (frequency of action potentials during stimulus minus baseline), 7C” value in experiment [8] is “++ (++, >100 spikes/second)”. Also, in [9], the “odor response (frequency of action potentials during stimulus minus baseline), 7A” value amounted to 0. Moreover, the “odor response (frequency of action potentials during stimulus minus baseline), 7B” value in [10] is 0. Moreover, in experiment [11], the “odor response (frequency of action potentials during stimulus minus baseline), 6C” value is on record as 0. Besides, in experiment [12], the “odor response (frequency of action potentials during stimulus minus baseline), 2B” value amounted to 0.
As for `C=CCSSSCC=C` [diallyl trisulfide], the “odor response (frequency of action potentials during stimulus minus baseline), 4B” value in experiment [1] was “+ (+, >50 spikes/second)”. Also, the “odor response (frequency of action potentials during stimulus minus baseline), 2C” value in experiment [2] turned out to be 0. Also, the “odor response (frequency of action potentials during stimulus minus baseline), 4A” value in experiment [3] was found to be 0. In [4], the “odor response (frequency of action potentials during stimulus minus baseline), 6A” value is 0. For the same molecule, the “odor response (frequency of action potentials during stimulus minus baseline), 4C” value in experiment [5] stood at 0. For the same molecule, in experiment [6], the “odor response (frequency of action potentials during stimulus minus baseline), 2A” value amounted to 0. Moreover, the “odor response (frequency of action potentials during stimulus minus baseline), 6B” value in experiment [7] is listed as “+ (+, >50 spikes/second)”. In experiment [8], the “odor response (frequency of action potentials during stimulus minus baseline), 7C” value is reported as 0. Moreover, the “odor response (frequency of action potentials during stimulus minus baseline), 7A” value in [9] is on record as 0. Further, the “odor response (frequency of action potentials during stimulus minus baseline), 7B” value in experiment [10] is 0. Moreover, the “odor response (frequency of action potentials during stimulus minus baseline), 6C” value in experiment [11] worked out at 0. In addition, the “odor response (frequency of action potentials during stimulus minus baseline), 2B” value in experiment [12] was found to be 0.
On to `CCCSSCCC` [dipropyl disulfide], for which the “odor response (frequency of action potentials during stimulus minus baseline), 4B” value in experiment [1] is “+ (+, >50 spikes/second)”. In addition, the “odor response (frequency of action potentials during stimulus minus baseline), 2C” value in experiment [2] was 0. For the same molecule, the “odor response (frequency of action potentials during stimulus minus baseline), 4A” value in experiment [3] was determined as 0. Further, the “odor response (frequency of action potentials during stimulus minus baseline), 6A” value in [4] is 0. In addition, the “odor response (frequency of action potentials during stimulus minus baseline), 4C” value in experiment [5] came to 0. Besides, in experiment [6], the “odor response (frequency of action potentials during stimulus minus baseline), 2A” value stood at 0. In addition, the “odor response (frequency of action potentials during stimulus minus baseline), 6B” value in [7] is “++ (++, >100 spikes/second)”. Moreover, the “odor response (frequency of action potentials during stimulus minus baseline), 7C” value in experiment [8] worked out at 0. In addition, in experiment [9], the “odor response (frequency of action potentials during stimulus minus baseline), 7A” value is 0. Besides, the “odor response (frequency of action potentials during stimulus minus baseline), 7B” value in experiment [10] was 0. Further, the “odor response (frequency of action potentials during stimulus minus baseline), 6C” value in experiment [11] worked out at 0. For the same molecule, the “odor response (frequency of action potentials during stimulus minus baseline), 2B” value in experiment [12] amounted to 0.
For the molecule `CCCC(=O)OCC` [ethyl butyrate], in experiment [1], the “odor response (frequency of action potentials during stimulus minus baseline), 4B” value is reported as “+++ (+++, >150 spikes/second)”. Further, the “odor response (frequency of action potentials during stimulus minus baseline), 2C” value in [2] is given as “+ (+, >50 spikes/second)”. Moreover, the “odor response (frequency of action potentials during stimulus minus baseline), 4A” value in experiment [3] is reported as 0. Further, the “odor response (frequency of action potentials during stimulus minus baseline), 6A” value in experiment [4] was 0. The “odor response (frequency of action potentials during stimulus minus baseline), 4C” value in experiment [5] is reported as 0. For the same molecule, the “odor response (frequency of action potentials during stimulus minus baseline), 2A” value in experiment [6] stood at 0. Further, in experiment [7], the “odor response (frequency of action potentials during stimulus minus baseline), 6B” value is recorded as “++ (++, >100 spikes/second)”. The “odor response (frequency of action potentials during stimulus minus baseline), 7C” value in experiment [8] was “++ (++, >100 spikes/second)”. Moreover, the “odor response (frequency of action potentials during stimulus minus baseline), 7A” value in [9] is reported as 0. The “odor response (frequency of action potentials during stimulus minus baseline), 7B” value in experiment [10] is 0. In addition, the “odor response (frequency of action potentials during stimulus minus baseline), 6C” value in [11] worked out at 0. In addition, the “odor response (frequency of action potentials during stimulus minus baseline), 2B” value in experiment [12] is on record as 0.
`CC(=O)OCC(C)C` [isobutyl acetate]: in [1], the “odor response (frequency of action potentials during stimulus minus baseline), 4B” value was “++ (++, >100 spikes/second)”. Moreover, in experiment [2], the “odor response (frequency of action potentials during stimulus minus baseline), 2C” value was 0. The “odor response (frequency of action potentials during stimulus minus baseline), 4A” value in [3] worked out at 0. For the same molecule, the “odor response (frequency of action potentials during stimulus minus baseline), 6A” value in experiment [4] amounted to 0. Further, the “odor response (frequency of action potentials during stimulus minus baseline), 4C” value in experiment [5] stood at 0. In addition, in experiment [6], the “odor response (frequency of action potentials during stimulus minus baseline), 2A” value is reported as 0. Besides, in experiment [7], the “odor response (frequency of action potentials during stimulus minus baseline), 6B” value was “++ (++, >100 spikes/second)”. For the same molecule, the “odor response (frequency of action potentials during stimulus minus baseline), 7C” value in experiment [8] is on record as 0. The “odor response (frequency of action potentials during stimulus minus baseline), 7A” value in experiment [9] stood at 0. Also, in [10], the “odor response (frequency of action potentials during stimulus minus baseline), 7B” value was 0. In experiment [11], the “odor response (frequency of action potentials during stimulus minus baseline), 6C” value was 0. Further, the “odor response (frequency of action potentials during stimulus minus baseline), 2B” value in [12] amounted to 0.
